The record followed here is paper PMC9133015 (Nature Communications, 2022).

What all share (test): Kinase inhibitor specificity profiling (Reaction Biology Corporation)
Common to all, as to format: biochemical
What all share (parameters): % Enzyme Activity (relative to DMSO controls): concentration or dose not given beside the values

The target of experiment [1] is T1, panel of 370 protein kinases (Homo sapiens, UniProt Q05397).
T1 construct: purchased Reaction Biology Corporation (assay service)
As to conditions: 2 h, kinase FAK/PTK2; read-out: % Enzyme Activity (relative to DMSO controls).

Experiment [2] has as its target T2, panel of 370 protein kinases (Homo sapiens, UniProt Q13188).
T2 construct: purchased Reaction Biology Corporation (assay service)
As to conditions: 2 h, kinase MST2/STK3; read-out: % Enzyme Activity (relative to DMSO controls).

Experiment [3] addresses T3, panel of 370 protein kinases (Homo sapiens, UniProt P49674).
T3 construct: purchased Reaction Biology Corporation (assay service)
As to conditions: 2 h, kinase CK1epsilon; read-out: % Enzyme Activity (relative to DMSO controls).

In experiment [4] the target is T4, panel of 370 protein kinases (Homo sapiens, UniProt P51451).
T4 construct: purchased Reaction Biology Corporation (assay service)
T4 sequence (P51451 whole entry): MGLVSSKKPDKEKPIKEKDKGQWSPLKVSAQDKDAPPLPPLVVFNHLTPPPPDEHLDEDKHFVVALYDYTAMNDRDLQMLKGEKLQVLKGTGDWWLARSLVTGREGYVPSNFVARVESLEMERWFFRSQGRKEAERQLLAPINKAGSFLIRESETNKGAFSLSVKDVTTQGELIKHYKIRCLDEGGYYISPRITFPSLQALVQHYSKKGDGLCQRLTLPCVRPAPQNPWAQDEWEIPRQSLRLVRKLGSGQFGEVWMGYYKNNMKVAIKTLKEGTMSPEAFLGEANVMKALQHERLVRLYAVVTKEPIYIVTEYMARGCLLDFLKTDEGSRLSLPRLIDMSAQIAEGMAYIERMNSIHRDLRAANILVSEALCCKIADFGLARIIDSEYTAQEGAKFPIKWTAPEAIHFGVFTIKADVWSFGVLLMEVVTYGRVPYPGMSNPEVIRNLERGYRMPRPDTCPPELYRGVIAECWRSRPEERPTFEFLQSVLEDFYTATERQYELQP
As to conditions: 2 h, kinase BLK; read-out: % Enzyme Activity (relative to DMSO controls).

Experiment [5] deals with T5, panel of 370 protein kinases (Homo sapiens, UniProt P29376).
T5 construct: purchased Reaction Biology Corporation (assay service)
The following applies: 2 h, kinase TYK1/LTK; read-out: % Enzyme Activity (relative to DMSO controls).

For experiment [6], the target named is T6, panel of 370 protein kinases (Homo sapiens, UniProt Q9BUB5).
T6 construct: purchased Reaction Biology Corporation (assay service)
T6 sequence (Q9BUB5 whole entry): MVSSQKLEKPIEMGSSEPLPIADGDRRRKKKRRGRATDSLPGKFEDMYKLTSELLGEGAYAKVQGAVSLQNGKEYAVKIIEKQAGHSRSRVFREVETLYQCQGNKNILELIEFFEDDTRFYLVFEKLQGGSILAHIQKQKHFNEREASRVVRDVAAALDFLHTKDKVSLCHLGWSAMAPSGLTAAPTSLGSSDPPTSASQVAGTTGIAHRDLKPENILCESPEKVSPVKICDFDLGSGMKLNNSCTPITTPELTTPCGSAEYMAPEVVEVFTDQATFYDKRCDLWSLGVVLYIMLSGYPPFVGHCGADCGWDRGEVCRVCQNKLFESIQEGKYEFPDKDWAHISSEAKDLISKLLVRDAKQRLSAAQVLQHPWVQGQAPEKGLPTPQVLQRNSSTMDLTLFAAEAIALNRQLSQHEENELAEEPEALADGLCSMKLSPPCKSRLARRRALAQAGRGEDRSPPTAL
As to conditions: 2 h, kinase MNK1; read-out: % Enzyme Activity (relative to DMSO controls).

For experiment [7], the target named is T7, panel of 370 protein kinases (Homo sapiens, UniProt Q9Y4K4).
T7 construct: purchased Reaction Biology Corporation (assay service)
The following applies: 2 h, kinase KHS/MAP4K5; read-out: % Enzyme Activity (relative to DMSO controls).

For experiment [8], the target named is T8, panel of 370 protein kinases (Homo sapiens, UniProt Q13043).
T8 construct: purchased Reaction Biology Corporation (assay service)
T8 sequence (Q13043 whole entry): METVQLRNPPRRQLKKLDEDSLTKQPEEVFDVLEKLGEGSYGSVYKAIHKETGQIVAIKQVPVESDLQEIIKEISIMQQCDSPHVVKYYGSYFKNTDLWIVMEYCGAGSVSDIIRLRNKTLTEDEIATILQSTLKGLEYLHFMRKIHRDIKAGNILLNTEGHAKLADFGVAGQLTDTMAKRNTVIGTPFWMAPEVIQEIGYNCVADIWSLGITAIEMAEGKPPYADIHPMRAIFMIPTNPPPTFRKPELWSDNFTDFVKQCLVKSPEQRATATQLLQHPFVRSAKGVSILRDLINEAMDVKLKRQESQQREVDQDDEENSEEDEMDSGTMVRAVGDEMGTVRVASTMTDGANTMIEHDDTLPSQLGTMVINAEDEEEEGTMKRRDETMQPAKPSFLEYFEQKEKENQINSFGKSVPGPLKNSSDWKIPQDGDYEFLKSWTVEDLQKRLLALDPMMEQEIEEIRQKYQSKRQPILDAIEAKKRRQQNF
The following applies: kinase MST1/STK4.

Experiment [9] addresses T9, panel of 370 protein kinases (Homo sapiens, UniProt Q16539).
T9 construct: purchased Reaction Biology Corporation (assay service)
The following applies: kinase P38a/MAPK14.

Experiment [10] concerns the target T10, panel of 370 protein kinases (Homo sapiens, UniProt P37173).
T10 construct: purchased Reaction Biology Corporation (assay service)
The following applies: 2 h, kinase TGFBR2; read-out: % Enzyme Activity (relative to DMSO controls).

In experiment [11] the target is T11, panel of 370 protein kinases (Homo sapiens, UniProt O75582).
T11 construct: purchased Reaction Biology Corporation (assay service)
As to conditions: 2 h, kinase MSK1/RPS6KA5; read-out: % Enzyme Activity (relative to DMSO controls).

The target of experiment [12] is T12, panel of 370 protein kinases (Homo sapiens, UniProt P53671).
T12 construct: purchased Reaction Biology Corporation (assay service)
T12 sequence (P53671 whole entry): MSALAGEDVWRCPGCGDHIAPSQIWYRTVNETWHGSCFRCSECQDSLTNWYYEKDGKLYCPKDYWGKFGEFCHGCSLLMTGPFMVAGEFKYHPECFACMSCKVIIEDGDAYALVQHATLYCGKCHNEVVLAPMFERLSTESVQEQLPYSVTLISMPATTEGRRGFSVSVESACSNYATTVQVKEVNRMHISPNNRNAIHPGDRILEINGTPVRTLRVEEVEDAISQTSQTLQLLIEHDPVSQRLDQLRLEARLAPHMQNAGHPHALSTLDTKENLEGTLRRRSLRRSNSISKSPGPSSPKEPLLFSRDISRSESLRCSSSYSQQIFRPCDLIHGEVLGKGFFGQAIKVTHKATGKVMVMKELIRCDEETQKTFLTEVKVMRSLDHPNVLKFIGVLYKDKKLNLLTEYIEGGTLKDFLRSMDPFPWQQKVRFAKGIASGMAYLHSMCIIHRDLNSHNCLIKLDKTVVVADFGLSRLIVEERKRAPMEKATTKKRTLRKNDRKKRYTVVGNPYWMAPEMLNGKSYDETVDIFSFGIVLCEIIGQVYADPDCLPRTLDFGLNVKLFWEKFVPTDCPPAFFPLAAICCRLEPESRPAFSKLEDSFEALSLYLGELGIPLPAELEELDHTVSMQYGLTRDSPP
The following applies: 2 h, kinase LIMK2; read-out: % Enzyme Activity (relative to DMSO controls).

The target of experiment [13] is T13, panel of 370 protein kinases (Homo sapiens, UniProt P36897).
T13 construct: purchased Reaction Biology Corporation (assay service)
The following applies: 2 h, kinase ALK5/TGFBR1; read-out: % Enzyme Activity (relative to DMSO controls).

Experiment [14] addresses T14, panel of 370 protein kinases (Homo sapiens, UniProt Q99986).
T14 construct: purchased Reaction Biology Corporation (assay service)
As to conditions: kinase VRK1.

Experiment [15] addresses T15, panel of 370 protein kinases (Homo sapiens, UniProt O43293).
T15 construct: purchased Reaction Biology Corporation (assay service)
As to conditions: 2 h, kinase ZIPK/DAPK3; read-out: % Enzyme Activity (relative to DMSO controls).

Experiment [16] has as its target T16, panel of 370 protein kinases (Homo sapiens, UniProt O95382).
T16 construct: purchased Reaction Biology Corporation (assay service)
The following applies: 2 h, kinase MEKK6; read-out: % Enzyme Activity (relative to DMSO controls).

The target in experiment [17] is T17, panel of 370 protein kinases (Homo sapiens, UniProt Q8WXR4).
T17 construct: purchased Reaction Biology Corporation (assay service)
As to conditions: 2 h, kinase MYO3b; read-out: % Enzyme Activity (relative to DMSO controls).

The target in experiment [18] is T18, panel of 370 protein kinases (Homo sapiens, UniProt P31749).
T18 construct: purchased Reaction Biology Corporation (assay service)
The following applies: 2 h, kinase AKT1; read-out: % Enzyme Activity (relative to DMSO controls).

Experiment [19] concerns the target T19, panel of 370 protein kinases (Homo sapiens, UniProt Q14289).
T19 construct: purchased Reaction Biology Corporation (assay service)
As to conditions: 2 h, kinase PYK2; read-out: % Enzyme Activity (relative to DMSO controls).

The target in experiment [20] is T20, panel of 370 protein kinases (Homo sapiens, UniProt Q9BWU1).
T20 construct: purchased Reaction Biology Corporation (assay service)
T20 sequence (Q9BWU1 whole entry): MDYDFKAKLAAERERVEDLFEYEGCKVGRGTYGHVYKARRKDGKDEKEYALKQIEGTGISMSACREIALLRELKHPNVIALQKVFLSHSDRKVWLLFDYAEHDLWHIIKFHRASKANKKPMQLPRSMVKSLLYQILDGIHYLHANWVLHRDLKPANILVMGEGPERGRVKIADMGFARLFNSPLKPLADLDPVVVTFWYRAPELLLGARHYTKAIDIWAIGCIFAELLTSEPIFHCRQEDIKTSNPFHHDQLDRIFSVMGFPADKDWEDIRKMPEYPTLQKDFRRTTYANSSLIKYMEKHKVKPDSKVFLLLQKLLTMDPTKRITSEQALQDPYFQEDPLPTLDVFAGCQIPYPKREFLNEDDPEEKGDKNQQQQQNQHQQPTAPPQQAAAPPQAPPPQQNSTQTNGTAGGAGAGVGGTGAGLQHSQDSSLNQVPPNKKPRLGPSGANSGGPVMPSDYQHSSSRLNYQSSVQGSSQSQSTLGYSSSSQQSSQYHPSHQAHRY
The following applies: kinase CDK19/cyclin C.

Experiment [21] addresses T21, panel of 370 protein kinases (Homo sapiens, UniProt Q13464).
T21 construct: purchased Reaction Biology Corporation (assay service)
As to conditions: 2 h, kinase ROCK1; read-out: % Enzyme Activity (relative to DMSO controls).

Experiment [22] has as its target T22, panel of 370 protein kinases (Homo sapiens, UniProt P45985).
T22 construct: purchased Reaction Biology Corporation (assay service)
As to conditions: 2 h, kinase MKK4; read-out: % Enzyme Activity (relative to DMSO controls).

Structures are written as SMILES. Where “and” joins values, the source holds several entries; their conditions need not be identical. Equal entries are not always repeated.

T14 sequence (Q99986 whole entry): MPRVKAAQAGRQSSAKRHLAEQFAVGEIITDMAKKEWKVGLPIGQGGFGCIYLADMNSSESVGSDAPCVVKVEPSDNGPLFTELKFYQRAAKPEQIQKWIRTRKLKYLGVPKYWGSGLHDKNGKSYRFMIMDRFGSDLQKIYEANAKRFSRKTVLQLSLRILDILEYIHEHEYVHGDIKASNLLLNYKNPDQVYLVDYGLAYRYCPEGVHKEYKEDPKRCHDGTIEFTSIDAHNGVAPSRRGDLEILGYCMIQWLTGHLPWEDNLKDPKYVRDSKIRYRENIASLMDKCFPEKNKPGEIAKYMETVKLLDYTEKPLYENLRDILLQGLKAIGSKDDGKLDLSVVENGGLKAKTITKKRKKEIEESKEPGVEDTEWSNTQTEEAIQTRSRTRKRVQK
T9 sequence (Q16539 whole entry): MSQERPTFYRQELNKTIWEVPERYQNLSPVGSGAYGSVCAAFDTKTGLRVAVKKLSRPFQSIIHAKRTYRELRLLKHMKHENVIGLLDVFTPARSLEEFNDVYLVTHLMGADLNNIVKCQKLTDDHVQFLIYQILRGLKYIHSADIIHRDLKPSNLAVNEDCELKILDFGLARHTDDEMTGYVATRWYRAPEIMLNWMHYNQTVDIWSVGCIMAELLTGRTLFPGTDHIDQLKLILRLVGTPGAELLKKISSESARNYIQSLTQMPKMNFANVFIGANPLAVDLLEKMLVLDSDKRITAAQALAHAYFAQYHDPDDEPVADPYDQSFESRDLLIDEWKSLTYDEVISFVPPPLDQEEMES
T2 sequence (Q13188 whole entry): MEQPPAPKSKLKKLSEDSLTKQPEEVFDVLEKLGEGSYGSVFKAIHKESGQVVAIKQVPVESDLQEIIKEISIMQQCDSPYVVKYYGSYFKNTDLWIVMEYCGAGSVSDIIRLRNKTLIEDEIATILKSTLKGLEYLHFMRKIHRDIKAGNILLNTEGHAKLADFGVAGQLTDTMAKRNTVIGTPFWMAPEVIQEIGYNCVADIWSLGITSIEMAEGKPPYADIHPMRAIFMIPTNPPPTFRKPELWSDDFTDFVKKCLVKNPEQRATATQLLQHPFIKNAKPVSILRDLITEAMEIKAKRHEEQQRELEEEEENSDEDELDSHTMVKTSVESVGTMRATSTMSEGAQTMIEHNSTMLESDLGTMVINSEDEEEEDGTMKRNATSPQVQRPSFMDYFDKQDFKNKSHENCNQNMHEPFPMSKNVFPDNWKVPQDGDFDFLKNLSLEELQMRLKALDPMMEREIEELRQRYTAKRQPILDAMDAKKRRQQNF
T19 sequence (Q14289 whole entry): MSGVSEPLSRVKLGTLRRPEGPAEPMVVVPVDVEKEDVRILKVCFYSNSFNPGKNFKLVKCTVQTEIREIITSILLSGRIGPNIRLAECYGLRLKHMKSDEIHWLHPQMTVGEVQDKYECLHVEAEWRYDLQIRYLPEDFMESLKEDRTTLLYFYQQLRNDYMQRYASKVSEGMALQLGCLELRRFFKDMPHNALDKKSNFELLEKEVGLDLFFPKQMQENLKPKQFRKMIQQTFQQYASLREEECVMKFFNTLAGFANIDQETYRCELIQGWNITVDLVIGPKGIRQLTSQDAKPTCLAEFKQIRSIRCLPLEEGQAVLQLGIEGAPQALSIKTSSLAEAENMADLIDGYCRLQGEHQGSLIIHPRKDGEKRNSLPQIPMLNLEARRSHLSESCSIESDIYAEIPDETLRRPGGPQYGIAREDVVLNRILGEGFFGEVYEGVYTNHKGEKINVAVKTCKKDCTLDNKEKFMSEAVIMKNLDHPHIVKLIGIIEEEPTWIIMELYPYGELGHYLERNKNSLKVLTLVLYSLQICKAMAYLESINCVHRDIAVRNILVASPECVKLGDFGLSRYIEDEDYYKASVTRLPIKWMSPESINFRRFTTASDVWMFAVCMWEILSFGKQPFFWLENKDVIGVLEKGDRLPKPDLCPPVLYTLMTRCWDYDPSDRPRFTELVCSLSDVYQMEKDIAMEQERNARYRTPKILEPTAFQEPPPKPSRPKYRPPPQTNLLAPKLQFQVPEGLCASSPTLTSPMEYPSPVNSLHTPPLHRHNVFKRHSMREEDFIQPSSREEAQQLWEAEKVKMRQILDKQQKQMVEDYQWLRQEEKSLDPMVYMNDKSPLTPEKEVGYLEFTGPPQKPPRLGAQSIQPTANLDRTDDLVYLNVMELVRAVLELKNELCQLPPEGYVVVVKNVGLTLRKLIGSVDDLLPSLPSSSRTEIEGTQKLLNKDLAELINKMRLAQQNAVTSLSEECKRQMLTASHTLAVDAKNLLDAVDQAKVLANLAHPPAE

Consider `CCN1CCN(C(=O)c2ccc(Nc3ncc(F)c(-c4ccc5nc(N(C)C)sc5c4)n3)nc2)CC1` [YK-2-69], for which the remaining activity at 1 µM in experiment [1] was 95.9%; in experiment [2], 98.9%; in experiment [3], 111%; in [4], 100%; in experiment [5], 109%; in experiment [6], 89.6%. For the same compound, the remaining activity at 1 µM amounted to 101% in [7]; 104% in [10]; 115% in experiment [11]; 95% in experiment [12]; 115% in [13]; 67.1% in [15]. The remaining activity at 1 µM in [16] came to 111%; in experiment [17], 106%; in [18] it was 98.3%; in experiment [19], 110%; in experiment [21] it was 92.8%; in [22] it was 87.2%. Besides, the “% Enzyme Activity (relative to DMSO controls)” value in experiment [8] was 107.26% and 103.88%; in experiment [9], 99.00% and 95.59%; in experiment [14], 95.92% and 87.82%; in [20], 59.42% and 58.05%.
